Test results from patent US20250064947A1, “CYTOTOXICITY TARGETING CHIMERAS FOR FIBROBLAST ACTIVATION PROTEIN-EXPRESSING CELLS” (Glaxosmithkline Intellectual Property Development Limited, priority 2022, published 2025).

What follows are compounds tested against T1, FAP (Homo sapiens, UniProt Q12884) (assay: Antibody dependent cellular cytotoxicity (ADCC) reporter assay). Conditions: WI-38 target cells; Jurkat FcγRIIIa NFAT-luciferase reporter cells; with anti-cotinine antibody (SEQ ID NO: 11/12); 12-18 hours; average if more than one run.
T1 construct: Target cells: WI-38 cells (typically 1000-20,000 cells per well); endogenous in cells; host or cells: WI-38 cells
T1 sequence (Q12884 1-760): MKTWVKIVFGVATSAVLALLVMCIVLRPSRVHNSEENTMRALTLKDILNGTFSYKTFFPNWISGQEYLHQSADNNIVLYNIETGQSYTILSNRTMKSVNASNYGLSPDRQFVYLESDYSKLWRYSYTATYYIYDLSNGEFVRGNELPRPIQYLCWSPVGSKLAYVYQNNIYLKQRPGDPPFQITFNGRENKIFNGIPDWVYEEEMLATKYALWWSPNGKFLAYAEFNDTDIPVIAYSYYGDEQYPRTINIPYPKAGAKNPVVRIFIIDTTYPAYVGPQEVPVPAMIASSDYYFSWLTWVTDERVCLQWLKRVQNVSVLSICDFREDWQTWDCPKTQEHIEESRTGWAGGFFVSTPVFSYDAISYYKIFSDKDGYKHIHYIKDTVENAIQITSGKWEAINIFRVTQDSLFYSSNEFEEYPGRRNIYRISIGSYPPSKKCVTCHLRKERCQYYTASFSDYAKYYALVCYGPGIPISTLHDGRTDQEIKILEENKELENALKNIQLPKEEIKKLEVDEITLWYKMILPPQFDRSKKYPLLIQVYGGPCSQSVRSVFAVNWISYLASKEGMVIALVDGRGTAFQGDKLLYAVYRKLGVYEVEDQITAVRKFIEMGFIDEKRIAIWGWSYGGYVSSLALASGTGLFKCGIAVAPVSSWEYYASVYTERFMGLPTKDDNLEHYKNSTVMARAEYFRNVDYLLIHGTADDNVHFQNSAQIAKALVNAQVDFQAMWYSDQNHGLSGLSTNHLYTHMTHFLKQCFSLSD
Assay type: cell-based
Set-up: key to ADCC Reporter Assay pEC50: Inactive = pEC50 < 5
Procedure: An antibody dependent cellular cytotoxicity (ADCC) reporter assay was conducted using the following four assay components: (i) ARM compound of Formula (I) targeting FAP (concentrations ranging from […]); (ii) anti-cotinine antibody having a heavy chain sequence of SEQ ID NO: 11 and a light chain sequence of SEQ ID NO: 12 (rabbit variable region with human IgG1 Fc domain containing DE mutation (S239D/I332E)) (concentrations ranging from 0.01 μg/mL 200 μg/mL); (iii) Target cells: WI-38 cells (typically 1000-20,000 cells per well); and (iv) Reporter cells—Jurkat cells engineered to express FcγRIIIa with a reporter gene luciferase under the control of the NFAT promoter (typically 3000-75,000 cells per well). Reagents were combined in final volume of 20 μL in 384—well tissue culture treated plate. All four assay components were incubated together for about 12-18 hours. Thereafter, BioGlo Detection reagent (Promega) was added to the wells to lyse the cells and provide a substrate for the luciferase reporter protein.
Luminescence signal was measured on a microplate reader capable of measuring luminescence and signal:background was calculated by dividing the signal of a test well by the signal obtained when no compound of formula (I) was included in the assay. EC50 calculations were done using Graphpad Prism Software, specifically a nonlinear regression curve fit (Y=Bottom+(Top−Bottom)/(1+10^((Log EC50−X)*HillSlope))).
ARMs compounds of Formula (I) were tested for ADCC activity in the above assay in one or more experimental runs and the results are shown in Table 3 below. Potency of the compounds of Formula (I) is reported as a pEC50 values. The pEC50 value is the negative log of the EC50 value, wherein the EC50 value is half maximal effective concentration measured in molar (M). For compounds tested in more than one experimental run, the pEC50 value is reported as an average.

Structure (SMILES) | ADCC Reporter Assay pEC50
CN(CCNC(=O)CCOCCOCCOCCOCCOCCOCCOCCOCCOCCOCCOCCOCCNC(=O)[C@H]1CC(=O)N(C)[C@@H]1c1cccnc1)c1ccc2nccc(C(=O)NCC(=O)N3CC(F)(F)C[C@H]3C#N)c2c1 [Example 5, N-(2-((S)-2-cyano-4,4-difluoropyrrolidin-1-yl)-2-oxoethyl)-6-(methyl(1-((2S,3S)-1-methyl-5-oxo-2-(pyridin-3-yl)pyrrolidin-3-yl)-1,41-dioxo-5,8,11,14,17,20,23,26,29,32,35,38-dodecaoxa-2,42-diazatetratetracontan-44-yl)amino)quinoline-4-carboxamide] | Inactive
CN(CCNC(=O)[C@H]1CC[C@H](NC(=O)[C@H]2CC[C@H](NC(=O)CCCO[C@H]3CC[C@H](OCCNC(=O)[C@H]4CC(=O)N(C)[C@@H]4c4cccnc4)CC3)CC2)CC1)c1ccc2nccc(C(=O)NCC(=O)N3CC(F)(F)C[C@H]3C#N)c2c1 [Example 2, N-(2-((S)-2-cyano-4,4-difluoropyrrolidin-1-yl)-2-oxoethyl)-6-(methyl(2-((1R,4r)-((1R,4R)-4-(4-(((1S,4R)-4-(2-((2S,3S)-1-methyl-5-oxo-2-(pyridin-3-yl)pyrrolidine-3-carboxamido)ethoxy)cyclohexyl)oxy)butanamido)cyclohexane-1-carboxamido)cyclohexane-1-carboxamido)ethyl)amino)quinoline-4-carboxamide] | Inactive^1
CN(CCNC(=O)CCCO[C@H]1CC[C@H](OCCNC(=O)[C@H]2CC[C@H](NC(=O)CCCO[C@H]3CC[C@H](OCCNC(=O)[C@H]4CC(=O)N(C)[C@@H]4c4cccnc4)CC3)CC2)CC1)c1ccc2nccc(C(=O)NCC(=O)N3CC(F)(F)C[C@H]3C#N)c2c1 [Example 3, N-(2-((S)-2-cyano-4,4-difluoropyrrolidin-1-yl)-2-oxoethyl)-6-(methyl(2-(4-(((1R,4r)-4-(2-((1R,4R)-4-(4-(((1S,4R)-4-(2-((2S,3S)-1-methyl-5-oxo-2-(pyridin-3-yl)pyrrolidine-3-carboxamido)ethoxy)cyclohexyl)oxy)butanamido)cyclohexane-1-carboxamido)ethoxy)cyclohexyl)oxy)butanamido)ethyl)amino)quinoline-4-carboxamide] | Inactive

Same assay, conditions: WI-38 target cells; Jurkat FcγRIIIa NFAT-luciferase reporter cells; with anti-cotinine antibody (SEQ ID NO: 11/12); 12-18 hours; average if more than one run; read-out: ADCC Reporter Assay pEC50 (converted)

Structure (SMILES) | EC50 [nM]
CN1C(=O)C[C@H](C(=O)NCCOCCOCCOCCOCCOCCOCCOCCOCCOCCOCCOCCOCCOCCOCCOCCNC(=O)COc2ccc3nccc(C(=O)NCC(=O)N4CCC[C@@H]4C#N)c3c2)[C@H]1c1cccnc1 [Example 8, N-(2-((R)-2-cyanopyrrolidin-1-yl)-2-oxoethyl)-6-((1-((2S,3S)-1-methyl-5-oxo-2-(pyridin-3-yl)pyrrolidin-3-yl)-1,51-dioxo-5,8,11,14,17,20,23,26,29,32,35,38,41,44,47-pentadecaoxa-2,50-diazadopentacontan-52-yl)oxy)quinoline-4-carboxamide] | 3.98
CN1C(=O)C[C@H](C(=O)NCCOCCOCCOCCOCCOCCOCCOCCOCCOCCOCCOCCOCCOCCOCCOCCOCCOCCOCCOCCOCCOCCOCCOCCNC(=O)COc2ccc3c(C(=O)NCC(=O)N4CCC[C@H]4C#N)ccnc3c2)[C@H]1c1cccnc1 [Example 12, N-(2-((S)-2-cyanopyrrolidin-1-yl)-2-oxoethyl)-7-((1-((2S,3S)-1-methyl-5-oxo-2-(pyridin-3-yl)pyrrolidin-3-yl)-1,75-dioxo-5,8,11,14,17,20,23,26,29,32,35,38,41,44,47,50,53,56,59,62,65,68,71-tricosaoxa-2,74-diazahexaheptacontan-76-yl)oxy)quinoline-4-carboxamide] | 1
CN1C(=O)C[C@H](C(=O)NCCOCCOCCOCCOCCOCCOCCOCCOCCOCCOCCOCCOCCOCCOCCOCCOc2ccc3c(C(=O)NCC(=O)N4CCC[C@H]4C#N)ccnc3c2)[C@H]1c1cccnc1 [Example 9, N-(2-((S)-2-cyanopyrrolidin-1-yl)-2-oxoethyl)-7-((1-((2S,3S)-1-methyl-5-oxo-2-(pyridin-3-yl)pyrrolidin-3-yl)-1-oxo-5,8,11,14,17,20,23,26,29,32,35,38,41,44,47-pentadecaoxa-2-azanonatetracontan-49-yl)oxy)quinoline-4-carboxamide] | > 1000
